Assay results from publication PMC12190436, “5-Ene-2-arylaminothiazol-4(5H)-ones Induce Apoptosis in Breast Cancer Cells” (Cells, 2025).
Counter-ions that a name gives are not always drawn.

What was measured:
MCF-7 cells [1] = experiment: [3H]-thymidine incorporation assay; type: cell-based; settings: Homo sapiens, 24 h, read-out: [3H]-thymidine incorporation (% of control); for activity at 1 µM: MCF7, 1 µM; for activity at 2.5 µM: MCF7, 2.5 µM; for activity at 5 µM: MCF7, 5 µM
Protocol: To evaluate the effects of synthesized compounds and reference drug on cell proliferation [3H]-thymidine incorporation assay was applied. MCF-7 cells were seeded on 6-well plates as described before. After 24 h of incubation, the cells were treated with different concentrations of novel 4-thiazolidinone derivatives Les-6416, Les-6418 (1, 2.5, 5 µM), and doxorubicin hydrochloride (0.5 and 1 µM) for 24 h at 37 °C. After 24 h, the medium was changed to a fresh one without fetal bovine serum. A total of 0.5 µCi of tritium-labeled thymidine (specific activity: 7 Ci/mmol) was added to cells for 4 h. Afterwards, the cells were washed with 1 mL of 0.05 M Tris-HCl buffer pH 7.4 containing 0.11 M NaCl and […] 5% trichloroacetic acid (TCA). Each well was filled with 1 mL of a 0.1 M NaOH solution with 1% SDS for cell lysis. After 5 min, the cell lysates were transferred to scintillation vials, which were pre-filled beforehand with two milliliters of scintillation cocktail Ultima Gold XR from PerkinElmer (Waltham, MA, USA). The Scintillation Counter 1900 TR, TRI-CARB (Packard, Perkin Elmer, Inc., San Jose, CA, USA) was used to record the results. The radioactivity observed in untreated control cells was taken as 100%. The values of the tested compound were expressed as a percentage of the control value.
To investigate the antiproliferative activity of Les-6416 and Les-6418 on the MCF-7 cell line after 24 h of treatment, the [^3H]-thymidine incorporation assay was applied. Based on the outcome of previous analysis and the structural similarity of the tested compounds, 5, 2.5, and 1 µM concentrations were applied for this research. The obtained results are shown in the graph below (Figure 2). […] Formidable results also were obtained from the reference drug doxorubicin hydrochloride: 26.00 ± 7.07% for 1 µM and 43.50 ± 3.54% for 0.5 µM

MCF-7 cells [2] = experiment: Clonogenic assay; type: cell-based, human; settings: 24 h treatment, 10-day endpoint
Protocol: The clonogenic assay was performed in accordance with the published methodology. MCF-7 cells were seeded in 24-well plates at 2.5 × 10^2 cells per well in 1 mL medium. Afterwards, they were left in an incubator at 37 °C for 24 h to attach to the wells. […] After the treatment, the medium was changed to a fresh one and left for 10 days, with an additional change in medium for the fresh one on the 7th day. Next, colonies formed by the seeded cells were washed, fixed for 10 min at 4 °C with 90% methanol, and stained with crystal violet solution (0.1% of crystal violet dissolved in 25% methanol). Afterwards, the plates were washed and dried at room temperature. The wells were photographed and analyzed using ImageJ software version 1.54k (Bethesda, MD, USA), with colonies defined as clusters of fifty or more cells.
Colonies formation was assessed after a 10-day incubation period following the treatment.

caspase 7 = experiment: FLICA caspase-3/7 activity, flow cytometry; type: cell-based, human; settings: 5 µM, 24 h, MCF-7
Protocol: (§1) To determine the effects of the novel compounds on the caspases-3/7, caspase-8, caspase-9, and caspase-10 activity, the FLICA Caspase-3/7 Assay Kit, FLICA Caspase-8 Assay Kit, FLICA Caspase-9 Assay Kit, and FLICA Caspase-10 Assay Kit were applied (ImmunoChemistry Technologies, Bloomington, MN, USA). MCF-7 cells were seeded on 6-well plates (1 × 10^5 cells per well) and incubated for 24 h. Afterwards, they were treated for 24 h with tested compounds (Les-6416, Les-6418, Les-6381, Les-6423, and Les-6424) in a concentration of 5 µM and the reference drug doxorubicin hydrochloride in a concentration of 0.5 µM. Next, cells were amassed and washed two times with cold PBS, followed by resuspension in an Apoptosis Wash Buffer to a final concentration of 5 × 10^5 cells/mL. Afterwards, 290 µL of the prepared cell suspensions were transferred into tubes, followed by the addition of 10 µL of FLICA solution, prepared immediately before use, to each sample and incubated for an hour at 37 °C. Next, cells were washed two times with 2 mL of Apoptosis Wash Buffer, provided in the kit, centrifuged, and resuspended in 300 µL of the buffer. Prepared samples were assessed by a BD FACSCanto II flow cytometer (Becton Dickinson Biosciences, San Jose, CA, USA). For each sample, 1 × 10^4 events were analyzed. The obtained results were investigated by applying FACSDiva software Version 6.1.3 (BD Biosciences Systems, San Jose, CA, USA).
(§2) To further investigate the effects of the newly synthesized compounds on the process of apoptosis we decided to measure their impact on various caspases as evidence of intrinsic (caspase 9) or extrinsic (caspase 8, 10) pathways of programmed cell death by applying flow cytometry analysis after 24 h treatment of MCF-7 breast cancer cells with novel 4-thiazolidinone derivatives and reference drug doxorubicin hydrochloride. […] With 41.28 ± 5.45%, 43.23 ± 2.85%, and 41.90 ± 6.89% of cells with activated caspase 8, 10, and 9, respectively, Les-6416 continued the trend of displaying the most significant effect on the three tested caspases. […]

caspase 8 = experiment: FLICA caspase-8 activity, flow cytometry; type: cell-based, human; settings: 5 µM, 24 h, MCF-7
Protocol: as §1, §2

SMILES | activity at 0.5 µM (MCF-7 cells [1]; MCF7, 0.5 µM) | activity at 1 µM (MCF-7 cells [1]) | survival fraction (MCF-7 cells [2]; 1, 0.5, and 0.1 µM) | cells with active caspase 7 (caspase 7) | cells with active caspase 8 (caspase 8) | activity at 2.5 µM (MCF-7 cells [1]) | activity at 5 µM (MCF-7 cells [1]) | survival fraction (MCF-7 cells [2]; 2.5 µM) | survival fraction (MCF-7 cells [2]; 5 µM)
COc1cccc2c1C(=O)c1c(O)c3c(c(O)c1C2=O)C[C@@](O)(C(=O)CO)C[C@@H]3O[C@H]1C[C@H](N)[C@H](O)[C@H](C)O1 [DOX, Doxorubicin hydrochloride, reference compound] | 43.5 ± 3.54% | 26 ± 7.07% | 0% |  |  |  |  |  | 
COc1ccc(C=C2SC(Nc3cc(OC)c(OC)c(OC)c3)=NC2=O)cc1 [Les-6381, 5-(4-Methoxybenzylidene)-2-((3,4,5-trimethoxyphenyl)amino)thiazol-4(5H)-one] |  |  |  | 15.05 ± 1.73% | 19.8 ± 3.69% |  |  |  | 
COc1cc(NC2=NC(=O)C(=Cc3ccc4cc[nH]c4c3)S2)cc(OC)c1OC [Les-6416, 5-((1H-Indol-6-yl)methylene)-2-((3,4,5-trimethoxyphenyl)amino)thiazol-4(5H)-one] |  | 69 ± 1.41% |  | 47.90 ± 0.57% | 41.28 ± 5.45% | 27 ± 5.66% | 21.5 ± 2.12% | 5.89 ± 0.71% | 1.35 ± 1.42%
COc1cc(NC2=NC(=O)C(=Cc3c[nH]c4ccccc34)S2)cc(OC)c1OC [Les-6418, 5-((1H-Indol-3-yl)methylene)-2-((3,4,5-trimethoxyphenyl)amino)thiazol-4(5H)-one] |  | 95.5 ± 7.78% |  | 19.85 ± 0.07% |  | 72 ± 12.7% | 48.5 ± 12% | 38.83 ± 1.66% | 12.27 ± 9.27%
COc1cc(NC2=NC(=O)C(=Cc3cccs3)S2)cc(OC)c1OC [Les-6423, 5-(Thiophen-2-ylmethylene)-2-((3,4,5-trimethoxyphenyl)amino)thiazol-4(5H)-one] |  |  |  |  | 18.13 ± 1.96% |  |  |  | 
